In ChEMBL document CHEMBL5365431 (J Med Chem, 2023):
The source made the active and inactive calls. The rule behind the calls is not given here.

What was measured:
[1] = Antitumor activity against human Olaparib-resistant MDA-MB-436 cells xenografted in BALB/c mouse assessed as tumor growth inhibition by measuring T/C ratio at 25 mg/kg,po QD for 27 days relative to control; format: functional; design: scale not given: the % may be the effect or the level left; details: time 27 day
CAPAN-1 [2] = experiment: Antiproliferative activity against human CAPAN-1 cells assessed as cell proliferation inhibition incubated for 7 days by SRB assay; format: functional, cell-based
[3] = biological target: Protein mono-ADP-ribosyltransferase TIPARP (Homo sapiens, UniProt Q7Z3E1); experiment: Inhibition of PARP7 (unknown origin) using biotinylated NAD+ as substrate by luminescence assay
[4] = Antiproliferative activity against human Olaparib-resistant CAPAN-1 cells assessed as cell proliferation inhibition incubated for 7 days by SRB assay; format: functional, cell-based
CAPAN-1 [5] = details: Homo sapiens, dose 10.0 nM, time 4.5 hrs
[6] = Antiproliferative activity against human Olaparib-resistant U-251 cells assessed as cell proliferation inhibition incubated for 7 days by SRB assay; format: functional, cell-based
WI-38 = experiment: Antiproliferative activity against human WI-38 cells assessed as cell proliferation inhibition incubated for 7 days by SRB assay; format: functional, cell-based
[7] = Antiproliferative activity against HR-deficient human UWB1289 cells harboring BRCA1 mutant assessed as cell proliferation inhibition incubated for 7 days by SRB assay; format: functional, cell-based
MDA-MB-436 = experiment: Antiproliferative activity against HR-deficient human MDA-MB-436 cells harboring BRCA1 mutant assessed as cell proliferation inhibition incubated for 7 days by SRB assay; format: functional, cell-based
[8] = Selectivity index, ratio of IC50 for antiproliferative activity against human PARP1 knockout Talazoparib-resistant CAPAN-1 cells to IC50 for antiproliferative activity against human Talazoparib-resistant CAPAN-1 cells; format: functional
HCT-15 = experiment: Antiproliferative activity against HR-deficient human HCT-15 cells harboring BRCA2 mutant assessed as cell proliferation inhibition incubated for 7 days by SRB assay; format: functional, cell-based
[9] = biological target: Protein mono-ADP-ribosyltransferase PARP6 (Homo sapiens, UniProt Q2NL67); experiment: Inhibition of PARP6 (unknown origin) using biotinylated NAD+ as substrate by luminescence assay
Protein mono-ADP-ribosyltransferase PARP6, sequence (Q2NL67 whole entry): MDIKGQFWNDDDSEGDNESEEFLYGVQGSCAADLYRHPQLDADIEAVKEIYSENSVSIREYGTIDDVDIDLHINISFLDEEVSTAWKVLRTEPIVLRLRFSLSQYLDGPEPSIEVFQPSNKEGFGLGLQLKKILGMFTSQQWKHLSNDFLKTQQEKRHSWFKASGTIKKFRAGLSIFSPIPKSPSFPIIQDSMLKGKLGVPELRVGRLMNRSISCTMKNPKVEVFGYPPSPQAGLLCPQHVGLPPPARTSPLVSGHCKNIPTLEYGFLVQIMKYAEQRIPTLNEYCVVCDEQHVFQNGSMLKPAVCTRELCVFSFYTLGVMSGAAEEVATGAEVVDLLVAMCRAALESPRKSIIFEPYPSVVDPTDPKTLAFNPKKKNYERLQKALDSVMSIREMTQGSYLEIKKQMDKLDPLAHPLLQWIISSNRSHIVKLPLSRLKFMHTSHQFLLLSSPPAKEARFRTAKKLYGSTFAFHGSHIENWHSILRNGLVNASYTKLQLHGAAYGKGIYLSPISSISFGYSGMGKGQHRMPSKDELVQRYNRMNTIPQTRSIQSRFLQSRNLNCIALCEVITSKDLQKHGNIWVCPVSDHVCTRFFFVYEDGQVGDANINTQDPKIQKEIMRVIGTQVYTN

CAPAN-1 [10] = experiment: Antitumor activity against human Talazoparib-resistant CAPAN-1 cells xenografted in BALB/c mouse assessed as tumor growth inhibition by measuring T/C ratio at 25 mg/kg,po QD for 21 days relative to control; format: functional; design: scale not given: the % may be the effect or the level left; details: time 21 day
[11] = biological target: Poly [ADP-ribose] polymerase tankyrase-2 (Homo sapiens, UniProt Q9H2K2); experiment: Inhibition of PARP5B (unknown origin) using biotinylated NAD+ as substrate by luminescence assay
[12] = Stabilization of human His-tagged PARP1-DNA complex assessed as increase in fluorescence signal incubated for 60 mins using NAD+ as substrate by DSB fluorescence polarization assay
[13] = biological target: Poly [ADP-ribose] polymerase 2 (Homo sapiens, UniProt Q9UGN5); experiment: Inhibition of PARP2 (unknown origin) using histone as substrate by ELISA
Poly [ADP-ribose] polymerase 2, sequence (Q9UGN5 whole entry): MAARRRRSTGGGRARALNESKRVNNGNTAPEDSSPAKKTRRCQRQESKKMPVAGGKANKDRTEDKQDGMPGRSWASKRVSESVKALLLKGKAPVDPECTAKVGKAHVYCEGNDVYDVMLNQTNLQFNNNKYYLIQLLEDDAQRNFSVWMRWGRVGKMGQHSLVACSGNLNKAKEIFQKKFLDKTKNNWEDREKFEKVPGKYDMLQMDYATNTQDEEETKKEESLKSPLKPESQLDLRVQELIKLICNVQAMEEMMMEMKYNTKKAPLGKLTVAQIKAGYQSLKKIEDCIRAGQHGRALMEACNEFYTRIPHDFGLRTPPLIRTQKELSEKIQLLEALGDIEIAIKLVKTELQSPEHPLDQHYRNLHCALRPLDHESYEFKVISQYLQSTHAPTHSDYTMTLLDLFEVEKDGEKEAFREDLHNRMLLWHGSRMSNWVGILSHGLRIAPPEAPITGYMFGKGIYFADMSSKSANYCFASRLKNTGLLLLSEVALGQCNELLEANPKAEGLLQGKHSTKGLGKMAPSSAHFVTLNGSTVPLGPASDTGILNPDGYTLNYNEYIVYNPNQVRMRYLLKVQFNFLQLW

U2OS [14] = experiment: Inhibition of homologous recombination repair activity in human U2OS cells expressing direct repeat-GFP reporter gene transfected with pCBA-ISceI plasmid at 1 uM incubated for 48 hrs by flow cytometry; format: functional
HCC1937 = experiment: Antiproliferative activity against HR-deficient human HCC1937 cells harboring BRCA1 mutant assessed as cell proliferation inhibition incubated for 7 days by SRB assay; format: functional, cell-based
IMR-90 = experiment: Antiproliferative activity against human IMR-90 cells assessed as cell proliferation inhibition incubated for 7 days by SRB assay; format: functional, cell-based
[15] = biological target: Protein mono-ADP-ribosyltransferase PARP11 (Homo sapiens, UniProt Q9NR21); experiment: Inhibition of PARP11 (unknown origin) using biotinylated NAD+ as substrate by luminescence assay
Protein mono-ADP-ribosyltransferase PARP11, sequence (Q9NR21 whole entry): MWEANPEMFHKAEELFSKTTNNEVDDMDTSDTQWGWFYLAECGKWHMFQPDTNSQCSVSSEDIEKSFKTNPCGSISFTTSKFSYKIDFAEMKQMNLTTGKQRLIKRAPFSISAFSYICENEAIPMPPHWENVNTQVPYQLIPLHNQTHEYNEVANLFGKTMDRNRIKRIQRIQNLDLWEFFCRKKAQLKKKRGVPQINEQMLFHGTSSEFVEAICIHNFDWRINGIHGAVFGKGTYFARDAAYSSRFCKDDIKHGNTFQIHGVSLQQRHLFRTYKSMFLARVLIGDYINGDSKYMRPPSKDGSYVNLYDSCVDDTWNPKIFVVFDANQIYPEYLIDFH

[16] = Antiproliferative activity against human Olaparib-resistant MDA-MB-436 cells assessed as cell proliferation inhibition incubated for 7 days by CCK-8 assay; format: functional, cell-based
[17] = Clearance in Sprague-Dawley rat at 5 mg/kg, iv and measured upto 24 hrs; format: ADME, organism-based; details: in vivo
[18] = biological target: Protein mono-ADP-ribosyltransferase PARP15 (Homo sapiens, UniProt Q460N3); experiment: Inhibition of PARP15 (unknown origin) using biotinylated NAD+ as substrate by luminescence assay
[19] = biological target: Protein mono-ADP-ribosyltransferase PARP10 (Homo sapiens, UniProt Q53GL7); experiment: Inhibition of PARP10 (unknown origin) using biotinylated NAD+ as substrate by luminescence assay
Protein mono-ADP-ribosyltransferase PARP10, sequence (Q53GL7 whole entry): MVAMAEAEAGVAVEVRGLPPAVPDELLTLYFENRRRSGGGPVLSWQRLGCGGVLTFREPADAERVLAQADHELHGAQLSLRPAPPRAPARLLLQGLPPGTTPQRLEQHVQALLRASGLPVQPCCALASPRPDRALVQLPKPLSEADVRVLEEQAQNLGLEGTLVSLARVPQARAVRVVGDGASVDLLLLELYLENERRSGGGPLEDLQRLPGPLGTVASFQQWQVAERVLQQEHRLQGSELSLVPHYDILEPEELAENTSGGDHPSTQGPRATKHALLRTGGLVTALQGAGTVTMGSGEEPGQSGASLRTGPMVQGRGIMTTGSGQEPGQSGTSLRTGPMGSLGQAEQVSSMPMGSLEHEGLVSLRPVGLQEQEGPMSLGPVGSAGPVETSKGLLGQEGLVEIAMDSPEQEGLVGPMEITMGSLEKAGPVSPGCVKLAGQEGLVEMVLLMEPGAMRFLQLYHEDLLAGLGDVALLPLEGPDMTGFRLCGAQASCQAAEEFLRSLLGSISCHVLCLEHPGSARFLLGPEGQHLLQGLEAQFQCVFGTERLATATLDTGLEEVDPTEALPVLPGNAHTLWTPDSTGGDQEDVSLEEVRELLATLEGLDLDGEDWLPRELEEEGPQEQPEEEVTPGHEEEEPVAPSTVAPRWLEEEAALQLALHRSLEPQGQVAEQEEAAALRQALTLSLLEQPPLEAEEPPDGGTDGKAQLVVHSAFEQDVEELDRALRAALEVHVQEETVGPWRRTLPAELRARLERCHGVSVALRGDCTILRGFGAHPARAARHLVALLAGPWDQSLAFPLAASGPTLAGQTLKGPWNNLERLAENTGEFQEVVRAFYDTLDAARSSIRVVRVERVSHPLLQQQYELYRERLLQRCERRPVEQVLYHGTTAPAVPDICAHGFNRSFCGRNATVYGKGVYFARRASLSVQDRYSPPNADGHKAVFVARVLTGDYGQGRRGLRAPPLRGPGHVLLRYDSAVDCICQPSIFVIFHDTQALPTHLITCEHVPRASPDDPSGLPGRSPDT

Mus musculus [20] = organism: Mus musculus; details: BALB/c, dose 12.5-25 mg/kg, route po, time 21.0 day
[21] = biological target: Poly [ADP-ribose] polymerase tankyrase-1 (Homo sapiens, UniProt O95271)
U-251 = experiment: Antiproliferative activity against human Talazoparib-resistant U-251 cells assessed as cell proliferation inhibition incubated for 7 days by SRB assay; format: functional, cell-based
[22] = Half life in Sprague-Dawley rat at 5 mg/kg, iv and measured upto 24 hrs; format: ADME, organism-based; details: in vivo
U2OS [23] = experiment: Inhibition of homologous recombination repair activity in human PARP1 knockout U2OS cells expressing direct repeat-GFP reporter gene transfected with pCBA-ISceI plasmid at 1 uM incubated for 48 hrs by flow cytometry; format: functional
[24] = biological target: Protein mono-ADP-ribosyltransferase PARP14 (Homo sapiens, UniProt Q460N5); experiment: Inhibition of PARP14 (unknown origin) using biotinylated NAD+ as substrate by luminescence assay
Protein mono-ADP-ribosyltransferase PARP14, sequence (Q460N5 whole entry): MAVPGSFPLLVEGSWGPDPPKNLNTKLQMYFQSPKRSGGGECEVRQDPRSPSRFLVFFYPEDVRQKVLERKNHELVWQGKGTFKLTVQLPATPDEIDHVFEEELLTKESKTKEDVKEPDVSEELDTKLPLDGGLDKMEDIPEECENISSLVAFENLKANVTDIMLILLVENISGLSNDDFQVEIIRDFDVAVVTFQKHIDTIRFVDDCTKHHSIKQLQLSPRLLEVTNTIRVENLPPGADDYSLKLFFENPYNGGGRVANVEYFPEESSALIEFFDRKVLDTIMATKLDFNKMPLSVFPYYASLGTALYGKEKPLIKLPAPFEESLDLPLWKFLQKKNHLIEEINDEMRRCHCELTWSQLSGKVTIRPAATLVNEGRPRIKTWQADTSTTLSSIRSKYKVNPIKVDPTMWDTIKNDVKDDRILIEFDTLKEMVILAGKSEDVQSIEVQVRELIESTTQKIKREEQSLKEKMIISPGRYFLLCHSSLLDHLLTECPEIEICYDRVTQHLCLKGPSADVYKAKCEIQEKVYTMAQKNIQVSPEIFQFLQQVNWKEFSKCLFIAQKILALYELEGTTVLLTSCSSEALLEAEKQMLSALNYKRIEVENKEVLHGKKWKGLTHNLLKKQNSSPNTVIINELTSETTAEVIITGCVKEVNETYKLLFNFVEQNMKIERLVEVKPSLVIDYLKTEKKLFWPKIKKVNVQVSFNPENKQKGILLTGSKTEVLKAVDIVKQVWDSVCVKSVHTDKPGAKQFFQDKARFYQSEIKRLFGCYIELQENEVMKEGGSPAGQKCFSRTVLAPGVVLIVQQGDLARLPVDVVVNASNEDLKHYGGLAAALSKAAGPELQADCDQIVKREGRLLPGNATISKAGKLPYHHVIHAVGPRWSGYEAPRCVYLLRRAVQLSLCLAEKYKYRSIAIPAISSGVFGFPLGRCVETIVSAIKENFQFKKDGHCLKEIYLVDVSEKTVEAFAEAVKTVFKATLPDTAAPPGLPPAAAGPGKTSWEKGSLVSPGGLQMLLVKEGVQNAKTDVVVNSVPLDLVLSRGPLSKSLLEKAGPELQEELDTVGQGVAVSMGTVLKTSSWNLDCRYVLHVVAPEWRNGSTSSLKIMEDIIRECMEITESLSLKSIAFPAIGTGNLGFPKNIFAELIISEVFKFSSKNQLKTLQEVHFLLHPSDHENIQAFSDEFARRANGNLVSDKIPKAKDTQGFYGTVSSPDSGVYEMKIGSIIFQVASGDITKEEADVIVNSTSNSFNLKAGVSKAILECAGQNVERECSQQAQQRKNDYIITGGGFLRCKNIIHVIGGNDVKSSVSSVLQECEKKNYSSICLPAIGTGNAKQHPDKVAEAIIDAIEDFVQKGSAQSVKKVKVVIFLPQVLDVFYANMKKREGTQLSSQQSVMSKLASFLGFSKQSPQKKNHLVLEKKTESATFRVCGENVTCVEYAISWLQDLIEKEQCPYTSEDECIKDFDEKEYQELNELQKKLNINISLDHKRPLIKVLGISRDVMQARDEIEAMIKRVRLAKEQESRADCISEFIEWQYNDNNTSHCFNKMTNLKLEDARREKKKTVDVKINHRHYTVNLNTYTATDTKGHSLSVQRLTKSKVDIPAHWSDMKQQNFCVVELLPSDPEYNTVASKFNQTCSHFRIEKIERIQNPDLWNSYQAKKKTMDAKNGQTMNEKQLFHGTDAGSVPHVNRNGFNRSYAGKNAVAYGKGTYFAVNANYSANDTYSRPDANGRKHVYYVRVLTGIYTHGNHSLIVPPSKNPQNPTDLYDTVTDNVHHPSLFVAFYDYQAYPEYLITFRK

CAPAN-1 [25] = details: Homo sapiens, dose 10.0 nM, time 4.5 hrs; remark: listed apart in the source
[26] = Antiproliferative activity against human Talazoparib-resistant MDA-MB-436 cells assessed as cell proliferation inhibition incubated for 7 days by CCK-8 assay; format: functional, cell-based, Talazoparib-resistant MDA-MB-436 cell
V79 = experiment: Antiproliferative activity against Chinese hamster V79 cells harboring wild type BRCA2 assessed as cell proliferation inhibition incubated for 7 days by SRB assay; format: functional, cell-based; details: Cricetulus griseus
Mus musculus [27] = organism: Mus musculus; details: BALB/c, dose 12.5-25 mg/kg, route po, time 21.0 day; remark: listed apart in the source
[28] = Toxicity in BALB/c mouse xenografted with human Olaparib-resistant MDA-MB-436 cells assessed as body weight at 12.5 to 25 mg/kg,po QD for 27 days; format: organism-based; details: in vivo, 648 h, dose 12.5-25 mg/kg, time 27 day
[29] = biological target: Protein mono-ADP-ribosyltransferase PARP12 (Homo sapiens, UniProt Q9H0J9); experiment: Inhibition of PARP12 (unknown origin) using biotinylated NAD+ as substrate by luminescence assay
[30] = biological target: Protein mono-ADP-ribosyltransferase PARP3 (Homo sapiens, UniProt Q9Y6F1); experiment: Inhibition of PARP3 (unknown origin) using biotinylated NAD+ as substrate by luminescence assay
Protein mono-ADP-ribosyltransferase PARP3, sequence (Q9Y6F1 whole entry): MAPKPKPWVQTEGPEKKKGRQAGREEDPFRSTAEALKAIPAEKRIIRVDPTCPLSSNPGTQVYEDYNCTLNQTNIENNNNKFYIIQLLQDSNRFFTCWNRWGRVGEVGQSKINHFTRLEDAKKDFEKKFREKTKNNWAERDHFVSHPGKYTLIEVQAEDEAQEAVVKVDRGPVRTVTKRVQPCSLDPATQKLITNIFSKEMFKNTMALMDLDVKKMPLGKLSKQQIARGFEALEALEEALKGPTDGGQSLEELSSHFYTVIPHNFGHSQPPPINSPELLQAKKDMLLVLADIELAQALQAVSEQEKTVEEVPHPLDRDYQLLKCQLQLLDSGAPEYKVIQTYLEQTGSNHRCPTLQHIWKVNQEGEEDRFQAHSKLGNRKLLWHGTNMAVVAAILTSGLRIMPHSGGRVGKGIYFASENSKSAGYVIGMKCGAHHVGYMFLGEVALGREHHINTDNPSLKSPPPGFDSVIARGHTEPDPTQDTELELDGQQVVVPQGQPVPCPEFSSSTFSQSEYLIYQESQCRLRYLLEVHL

[31] = biological target: Poly [ADP-ribose] polymerase 1 (Homo sapiens, UniProt P09874); experiment: Inhibition of PARP1 (unknown origin) using histone as substrate by ELISA
[32] = Antiproliferative activity against Chinese hamster V-C8 cells harboring BRCA2 mutant assessed as cell proliferation inhibition incubated for 7 days by SRB assay; format: functional, cell-based; details: Cricetulus griseus
[33] = Antiproliferative activity against human UWB1289 cells harboring wild type BRCA1 assessed as cell proliferation inhibition incubated for 7 days by SRB assay; format: functional, cell-based
CAPAN-1 [34] = experiment: Antiproliferative activity against human Talazoparib-resistant CAPAN-1 cells assessed as cell proliferation inhibition incubated for 7 days by SRB assay; format: functional, cell-based
CAPAN-1 [35] = experiment: Antitumor activity against human Talazoparib-resistant CAPAN-1 cells xenografted in BALB/c mouse assessed as tumor growth inhibition by measuring T/C ratio at 12.5 mg/kg,po QD for 21 days relative to control; format: functional; design: scale not given: the % may be the effect or the level left; details: time 21 day
[36] = biological target: Protein mono-ADP-ribosyltransferase PARP4 (Homo sapiens, UniProt Q9UKK3); experiment: Inhibition of PARP4 (unknown origin) using biotinylated NAD+ as substrate by luminescence assay
Mus musculus [37] = organism: Mus musculus; details: BALB/c, dose 12.5-25 mg/kg, route po, time 21.0 day; remark: listed apart in the source
[38] = Selectivity index, ratio of IC50 for antiproliferative activity against Chinese hamster V79 cells harboring wild type BRCA2 to IC50 for antiproliferative activity against Chinese hamster V-C8 cells harboring BRCA2 mutant; format: functional, Cricetulus griseus
[39] = Antitumor activity against human Olaparib-resistant MDA-MB-436 cells xenografted in BALB/c mouse assessed as tumor growth inhibition by measuring T/C ratio at 12.5 mg/kg,po QD for 27 days relative to control; format: functional; design: scale not given: the % may be the effect or the level left; details: time 27 day
[40] = Selectivity index, ratio of IC50 for antiproliferative activity against human UWB1289 cells harboring wild type BRCA1 to IC50 for antiproliferative activity against HR-deficient human UWB1289 cells harboring BRCA1 mutant; format: functional

IC50 [3]: 7.3 nM | IC50 (MDA-MB-436): 0.52 nM | IC50 (HCT-15): 44.2 nM | IC50 [9]: 9.5 nM | IC50 [11]: 12.4 nM | EC50 [12]: 5.55 nM | IC50 [13]: 0.001 nM | IC50 (HCC1937): 4.54 nM | IC50 [15]: 2170 nM | clearance [17]: 24.5 mL/min/kg | IC50 [18]: 51600 nM | IC50 [19]: 10.8 nM | IC50 [21]: 3.8 nM | IC50 (U-251): 1.97 nM | half-life [22]: 3.25 h | IC50 [24]: 35900 nM | IC50 [29]: 14.1 nM | IC50 [30]: 1.1 nM | IC50 [31]: < 0.001 nM | IC50 [36]: 1 nM
Structure (SMILES): O=C(c1cc(Cc2n[nH]c(=O)c3ccccc23)ccc1F)N1CCn2c(nnc2-c2ccc(Br)o2)C1
Activity [1]: 15.29% | IC50 (CAPAN-1 [2]): 0.1 nM | IC50 [4]: 0.89 nM | inhibition (CAPAN-1 [5]): Active | IC50 [6]: 1.97 nM | IC50 (WI-38): 530 nM | IC50 [7]: 0.02 nM | Ratio IC50 [8]: 19 | Activity (CAPAN-1 [10]): 13.87% | inhibition (INH) (U2OS [14]): 95% | IC50 (IMR-90): 1240 nM | IC50 [16]: 1.97 nM | inhibition (Mus musculus [20]): Active | inhibition (INH) (U2OS [23]): 50% | inhibition (CAPAN-1 [25]): Active | IC50 [26]: 1.97 nM | IC50 (V79): 29.3 nM | inhibition (Mus musculus [27]): Active | Activity [28]: Non-Toxic | IC50 [32]: 1.19 nM | IC50 [33]: 0.34 nM | IC50 (CAPAN-1 [34]): 1.13 nM | Activity (CAPAN-1 [35]): 48.92% | inhibition (Mus musculus [37]): Active | Ratio IC50 [38]: 25 | Activity [39]: 36.74% | Ratio IC50 [40]: 17
